Reference: patent publication US6074845A (priority 1999, dated 2000)
Ends that are not written are not given here.

How the values were obtained:
[1] = system: insulin-stimulated glycogen synthesis; details: activation of sensory nerves; cited from earlier work
[2] = system: ATP-sensitive potassium channel; details: rabbit mesenteric resistance arteries and rat basilar artery; cited from earlier work
[3] = biological target: T1, BECRLR (bovine calcitonin receptor-like receptor) (Bos taurus, UniProt A6QP74); test: Competition binding, displacement of [125I] rADM from BECRLR membranes; details: BE-CRLR membranes; for IC50: [125I] rADM
T1 construct: amplify the open reading frame of the novel bovine CRLR cDNA; expressed in transfected cells; also transient transfection
Description: (§1) Cells from BECRLR-293 were scraped into ice-cold PBS and centrifuged for 10 min at 1000× g at 4° C. The pellet was resuspended in 10 mM Tris-HCl, pH 7.4, 10 mM Na-EDTA and homogenized using a Dounce ground glass homogenizer. The homogenate was centrifuged for 20 min at 12,000× g at 4° C. and the resultant membrane pellet was resuspended in 50 mM Tris-HCl, pH 7.4, 10 mM MgCl2 and recentrifuged. The final pellet was resuspended in 50 mM Tris-HCl, pH 7.4, 10 mM MgCl2 and assayed immediately.
(§2) Saturation binding experiments were carried out using membranes prepared from BECRLR-293 cells pretreated in the absence or presence of ADM. The incubation mixture contained various concentrations of [^125 I] ADM (5 to 120 pM) and 40-60 μg of membrane protein in a final volume of 500 ul. Nonspecific binding was determined in the presence of 1 μM r ADM. After incubating for 30 min at 25° C., the reaction mixture was rapidly diluted with cold 0.9% NaCl and bound and free ligands were separated by filtration on glass fiber filters.
(§3) [^125 I] […] The specificity of [^125 I] rADM binding to BE-CRLR membranes was investigated by analyzing the displacement of this radioligand binding by ADM and related peptides.

[4] = biological target: T1, BECRLR (bovine calcitonin receptor-like receptor); test: Inhibition of ADM-activated adenylyl cyclase activity (antagonism) in BECRLR-293 membranes; assay type: biochemical; details: BECRLR #8
Description: as §1, §3

[5] = system: vector transfected HEK293 cell membranes; test: Adenylyl cyclase activity in vector transfected HEK293 cell membranes (control); assay type: biochemical, human
Description: (§4) Membrane-bound adenylyl cyclase activity was determined. Membranes [40-60 ug protein] were incubated in triplicate tubes in buffer containing 50 mM Tris-HCl, pH 7.4, 10 mM MgCl2, 1.2 mM ATP, 1.0 μCi [α^32P]ATP, 0.1 mM cAMP, 2.8 mM phosphoenolpyruvate and 5.2 μg/ml myokinase in a final volume of 100 μl for 20 min at 30° C. The reactions were stopped with 1 ml of a solution containing 0.28 mM cAMP, 0.33 mM ATP and 22,000 dpm of [^3 H]cAMP. [^32 P]cAMP was separated using sequential chromatography as the rate of conversion of [(α^32 P]ATP to [^32 P]cAMP on Dowex and alumina columns (33). Adenylyl cyclase activities were determined in the absence (basal) or presence of various concentrations of rat ADM or hαCGRP (1 pM to 1 μM). The effect of ADM (22-52), ADM (26-52) and hαCGRP(8-37), on ADM-mediatedactivation of adenylyl cyclase was also determined.
HEK293 cells transiently transfected with this clone responded to CGRP and ADM […] by stimulating adenylyl cyclase activity (60-80% over basal). This clone has been stably expressed in HEK293 cells using the LipofectAMINE procedure and analyzed for CGRP and ADM-mediated adenylyl cyclase activity. One of the positive clones (BECRLR #8) was fully characterized. […]

[6] = system: insulin's effects on glucose metabolism; details: cited from earlier work
[7] = infusion into humans and a variety of other species; cited from earlier work
[8] = biological target: T1, BECRLR (bovine calcitonin receptor-like receptor); test: Adenylyl cyclase activity (activation) in BECRLR-expressing HEK293 cells/membranes; assay type: biochemical; design: adenylyl cyclase activity stimulation over basal: dose or concentration left out as unconfirmed; details: for additive effect between CGRP and ADM on adenylyl cyclase: CGRP combined with ADM, BECRLR #8; for adenylyl cyclase activity stimulation over basal: HEK293 cells transiently transfected; for EC50 / activation of adenylyl cyclase activity over basal: stable clone BECRLR #8; for activation of adenylyl cyclase activity over basal: concentration-dependent
Text: A bovine endothelial cell cDNA library was constructed using the k-Zap cDNA synthesis kit (Stratagene, La Jolla, Calif.) following the standard protocol. The human CGRP receptor c-DNA-coding sequence was used as a probe for the isolation of CRLR clones from an endothelial cell library. The probe was radiolabled with [α^32 P] ATP by the random priming method and used to screen approximately 1×10^6 plaque-forming units of the endothelial CRLR cDNA library. Nylon filters (Hybond ) containing plaque lifts were hybridized at 42° in 5× SSC (SSC is 150 mM NaCl and 15 mM sodium citrate), 5× Denhardt's solution, 0.1% SDS and 20% formamide followed by autography. Hybridizing clones (8) were plaque purified, and the pBluescript-containing insert was rescued from the purified×phage by in vivo excision using the Exassist/Solar system (Stratagene) and was sequenced in both strands by the dideoxynucleotide chain termination reaction. Two oligonucleotide primers were designed to amplify the open reading frame of the novel bovine CRLR cDNA. PCR amplification was carried out. A recombinant of the novel bovine CRLR was produced by transfection in HEK-293 cells. Transfection was achieved by LipofectAMINE procedure (Life Technologies, Gaithersburg, Md.). Stable cell lines expressing this receptor were selected with G418 and screened for CGRP and ADM-dependent activation of adenylyl cyclase.
as §1, §4
(§5) HEK293 cells transiently transfected with this clone responded to CGRP and ADM […] by stimulating adenylyl cyclase activity (60-80% over basal). This clone has been stably expressed in HEK293 cells using the LipofectAMINE procedure and analyzed for CGRP and ADM-mediated adenylyl cyclase activity. One of the positive clones (BECRLR #8) was fully characterized. […] To investigate further the functional results described in this study, a binding study using [^125 I]rADM and [^125 I]CGRP was performed to identify the presence of binding sites for both peptides in BE-CRLR (#8) cell membranes. [^125 I] CGRP binding was very little and the affinity or number of binding sites was difficult to determine. […] The specificity of [^125 I] rADM binding to BE-CRLR membranes was investigated by analyzing the displacement of this radioligand binding by ADM and related peptides. Human and rat ADM displaced [^125 I] rADM binding with high affinity (IC50 values 2-4 nM).

[9] = system: CRLR coexpressed with RAMP 1; details: CRLR with RAMP 1; cited from earlier work
[10] = biological target: T1, BECRLR (bovine calcitonin receptor-like receptor); test: Saturation / specific radioligand binding to BECRLR-293 membranes
Description: as §1
as §2, with “filters. In competition binding studies, the membranes were incubated with increasing concentrations of r ADM or CGRP (1 pM-1 uM) and 150 pM of [^125 I] r ADM for 30 min. at 25° C.” for “filters.”
as §5, with “Human and rat ADM displaced [^125 I] rADM binding with high affinity (IC50 values 2-4 nM).” left out

rat tissues = details: [125I] rat ADM; cited from earlier work
NO-cGMP system = details: kidney, vascular EC, rabbit ventricular myocytes; cited from earlier work
[11] = injected intravenously into rats; cited from earlier work
[12] = system: insulin secretion and blood glucose metabolism; details: cited from earlier work
[13] = system: CRLR co-expressed with RAMP2; details: cited from earlier work
[14] = system: vascular SMC, and bovine EC; details: cited from earlier work
[15] = system: rat vascular SMC and cardiomyocytes; details: cited from earlier work

T1 sequence (A6QP74 23-462): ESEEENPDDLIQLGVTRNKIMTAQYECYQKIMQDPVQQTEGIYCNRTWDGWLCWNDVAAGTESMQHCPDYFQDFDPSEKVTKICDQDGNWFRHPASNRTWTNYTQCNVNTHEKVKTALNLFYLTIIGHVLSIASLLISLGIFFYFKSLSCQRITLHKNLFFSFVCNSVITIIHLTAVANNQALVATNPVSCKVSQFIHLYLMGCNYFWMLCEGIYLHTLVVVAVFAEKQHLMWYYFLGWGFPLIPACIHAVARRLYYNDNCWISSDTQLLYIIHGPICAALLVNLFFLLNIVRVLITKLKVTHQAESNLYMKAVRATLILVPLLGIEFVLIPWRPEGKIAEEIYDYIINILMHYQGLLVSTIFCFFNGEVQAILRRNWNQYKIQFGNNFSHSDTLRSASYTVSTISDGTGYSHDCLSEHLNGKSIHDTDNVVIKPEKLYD
T1 sequence (O60895 43-175 partner): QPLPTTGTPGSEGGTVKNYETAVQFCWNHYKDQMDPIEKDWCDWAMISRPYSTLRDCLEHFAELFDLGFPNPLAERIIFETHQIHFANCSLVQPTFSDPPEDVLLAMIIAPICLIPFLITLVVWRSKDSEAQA

For COc1cc(CNC(=O)CCCC/C=C/C(C)C)ccc1O [capsaicin], the insulin-stimulated glycogen synthesis [1] is given as “inhibits insulin-stimulated glycogen synthesis”.

In the case of COc1ccc(Cl)cc1C(=O)NCCc1ccc(S(=O)(=O)NC(=O)NC2CCCCC2)cc1 [glibenclamide], the “inhibition of CGRP actions” value [2] is listed as “CGRP actions are inhibited by glibenclamide”.

For C=C(C)[C@]12C[C@@H](C)[C@@]34O[C@](Cc5ccccc5)(O[C@@H]1[C@@H]3C=C(COC(=O)Cc1ccc(O)c(OC)c1)C[C@]1(O)C(=O)C(C)=C[C@@H]41)O2 [resiniferatoxin], the insulin-stimulated glycogen synthesis [1] is given as “inhibits insulin-stimulated glycogen synthesis”.

For “ADM(22-52): ADM receptor antagonist, fragment 22-52 of adrenomedullin”, the “displacement potency relative to ADM (fold less potent than ADM)” value ([3]; [125I] rADM displacement) was “approximately 15 fold” and the IC50 [4] was 110 nM.

For “ADM(26-52): ADM receptor antagonist, fragment 26-52 of adrenomedullin (LAHQIYQFTDKDKDNVAPRSKISPQGY; ends and bridges not checked; UniProt P35318 120-146, looked up, fragment)”, the IC50 [4] was over 10000 nM.

For Calcitonin gene-related peptide [CGRP], the “activation of adenylyl cyclase in vector transfected membranes” value [5] is listed as “did not respond”, the “glucose infusion rate needed to maintain plasma euglycemia” value ([6]; glucose clamp in rats, constant insulin infusion rate) is listed as “rapid and sustained reduction in the glucose infusion rate” and the “insulin inhibition of hepatic glucose production” value ([6]; rat, in vivo) is listed as “effective in blocking insulin inhibition of hepatic glucose production”. The “displacement of [125I] rADM binding, potency in words” value ([3]; [125I] rADM displacement) was “less potent”, the “vasodilation, blood flow, blood pressure, heart rate” value [7] was “vasodilation, increased regional blood flow, hypotension and tachycardia” and the “additive effect between CGRP and ADM on adenylyl cyclase” value [8] was “no additive effect”. The “adenylyl cyclase activity stimulation over basal” value [8] was 60-80 % over basal, the EC50 [8] was 2.8 nM and the “activation of adenylyl cyclase activity over basal” value [8] was ~ 300 % over basal. The “response of expressed receptor” value [9] was “responds to CGRP”.

Work on Human adrenomedullin [Human ADM] yielded an IC50 [3] of 2 to 4 nM.

In the case of “[^125 I]rADM: radioiodinated rat adrenomedullin, radioligand (YRQSMNQGSRSTGCRFGTCTMQKLAHQIYQFTDKDKDGMAPRNKISPQGY; ends and bridges not checked; also: radioiodinated (125I), position not given here; UniProt P43145 94-143, looked up)”, the Kd ([10]; Scatchard transformation, single class of high affinity binding site, read-out: dissociation constant (Kd)) is listed as 0.25 nM, the “specific binding as percent of total binding” value ([10]; [125I]rADM, BE-CRLR (#8) cell membranes) is listed as 80-90 % of the total binding and the “density of ADM binding sites among rat tissues” value (rat tissues) is listed as “lung had the highest density of ADM binding sites”.

For “adrenomedullin (YRQSMNQGSRSTGCRFGTCTMQKLAHQIYQFTDKDKDGMAPRNKISPQGY; ends and bridges not checked; cysteine pairing not given here; UniProt P43145 94-143, looked up) [ADM, vasodilating peptide]”, the NO-cGMP system (NO-cGMP system) is given as “activated the NO-cGMP system”, the “affinity of BECRLR, overall conclusion” value ([10]; based on radioligand binding and functional assays) is given as “higher affinity to ADM” and the “activation of adenylyl cyclase in vector transfected membranes” value [5] is given as “did not respond”. The hypotension [11] was “strong, long-lasting hypotension”, the “insulin secretion and blood glucose metabolism” value [12] was “down-regulate insulin secretion and blood glucose metabolism” and the “response of expressed receptor” value [13] was “responds to ADM”. For the same compound, the “intracellular Ca++” value ([14]; through the activation of phospholipase C) was “induces a rise in intracellular Ca^++”, the “accumulation of intracellular cAMP” value ([14]; vascular SMC, and bovine EC) was “stimulates the accumulation of intracellular cAMP” and the “c-fos gene expression and AP-I DNA binding activity” value [15] was “induces rapid and transient c-fos gene expression and AP-I DNA binding activity”. The “additive effect between CGRP and ADM on adenylyl cyclase” value [8] was “no additive effect”, the “adenylyl cyclase activity stimulation over basal” value [8] was 60-80 % over basal and the EC50 [8] was 4.3 nM. The “activation of adenylyl cyclase activity over basal” value [8] was ~ 300 % over basal.

For “rat ADM: rat adrenomedullin (YRQSMNQGSRSTGCRFGTCTMQKLAHQIYQFTDKDKDGMAPRNKISPQGY; ends and bridges not checked; cysteine pairing not given here; UniProt P43145 94-143, looked up)”, the IC50 [3] was 2 to 4 nM.
